According to patent publication US12077503B2, “Substituted cyclic amides and their use as herbicides” (FMC CORPORATION, priority 2015, dated 2024):

Tests used:
Assay type in all cases: in vivo
rice (Oryra sativa) = experiment: Test B flooded paddy test; conditions: Oryza sativa, 250 g ai/ha, Flood; 0 to 100 scale where 0 is no effect and 100 is complete control; read-out: Rice plant response rating
Procedure, shortened: (§1)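 2-leaf plants; pots flooded 3 cm over soil; cpd added to paddy water; depth held; greenhouse 13–15 d; visual rating vs controls, 0 = no effect, 100 = complete control.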

[1] = test system: sedge, umbrella (small-flower umbrella sedge, Cyperus difformis); experiment: Test B flooded paddy test; conditions: Cyperus difformis, 250 g ai/ha, Flood; 0 to 100 scale where 0 is no effect and 100 is complete control; read-out: Sedge, Umbrella plant response rating
Procedure, shortened: as §1

[2] = test system: ducksalad (Heteranthera limosa); experiment: Test B flooded paddy test; conditions: Heteranthera limosa, 250 g ai/ha, Flood; 0 to 100 scale where 0 is no effect and 100 is complete control; read-out: Ducksalad plant response rating
Procedure, shortened: as §1

[3] = test system: barnyardgrass (Echinochloa crus-galli); experiment: Test B flooded paddy test; conditions: Echinochloa crus-galli, 250 g ai/ha, Flood; 0 to 100 scale where 0 is no effect and 100 is complete control; read-out: Barnyardgrass plant response rating
Procedure, shortened: as §1

[4] = test system: giant foxtail (Setaria faberii); experiment: Test A postemergence; conditions: Setaria faberi, post-emergence, 240 h, read-out: Plant response rating, Foxtail, Giant; for pest or weed control at 125 g/ha: 125 g ai/ha, Postemergence, visual injury after approximately 10 d, 0 to 100 scale where 0 is no effect and 100 is complete control; for pest or weed control at 500 g/ha: 500 g ai/ha, postemergence, visual injury, 0 to 100 scale (0 no effect, 100 complete control), approx. 10 d
Procedure, shortened: (§2)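 Preemergence directed soil spray on seeded pots, or postemergence application to plants 2–10 cm, one- to two-leaf. Solvent mixture non-phytotoxic, with surfactant. Scored ~10 d later, visually, 0–100 vs untreated.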

corn (Zea mays) = experiment: Test A postemergence; conditions: Zea mays, post-emergence, 240 h; for Corn plant response rating (crop injury, 0 = no effect, 100 = complete kill) at 125 g/ha: 125 g ai/ha, Postemergence, visual injury after approximately 10 d, 0 to 100 scale where 0 is no effect and 100 is complete control; for Corn plant response rating (crop injury, 0 = no effect, 100 = complete kill) at 500 g/ha: 500 g ai/ha, postemergence, visual injury, 0 to 100 scale (0 no effect, 100 complete control), approx. 10 d
Procedure, shortened: as §2

[5] = test system: pigweed (Amaranthus retroflexus); experiment: Test A postemergence; conditions: Amaranthus retroflexus, post-emergence, 240 h, read-out: Plant response rating, Pigweed; for pest or weed control at 125 g/ha: 125 g ai/ha, Postemergence, visual injury after approximately 10 d, 0 to 100 scale where 0 is no effect and 100 is complete control; for pest or weed control at 500 g/ha: 500 g ai/ha, postemergence, visual injury, 0 to 100 scale (0 no effect, 100 complete control), approx. 10 d
Procedure, shortened: as §2

[6] = test system: wheat (Triticum aestivum); experiment: Test A postemergence; conditions: Triticum aestivum, post-emergence, 240 h, read-out: Plant response rating, Wheat; for plant injury at 125 g/ha: 125 g ai/ha, Postemergence, visual injury after approximately 10 d, 0 to 100 scale where 0 is no effect and 100 is complete control; for plant injury at 500 g/ha: 500 g ai/ha, postemergence, visual injury, 0 to 100 scale (0 no effect, 100 complete control), approx. 10 d
Procedure, shortened: as §2

[7] = test system: Galium (catchweed bedstraw, Galium aparine); experiment: Test A postemergence; conditions: Galium, post-emergence, 240 h, read-out: Plant response rating, Galium; for pest or weed control at 125 g/ha: 125 g ai/ha, Postemergence, visual injury after approximately 10 d, 0 to 100 scale where 0 is no effect and 100 is complete control; for pest or weed control at 500 g/ha: 500 g ai/ha, postemergence, visual injury, 0 to 100 scale (0 no effect, 100 complete control), approx. 10 d
Procedure, shortened: as §2

[8] = test system: ryegrass, Italian (Italian ryegrass, Lolium multiflorum); experiment: Test A postemergence; conditions: Lolium multiflorum, post-emergence, 240 h, read-out: Plant response rating, Ryegrass, Italian; for pest or weed control at 125 g/ha: 125 g ai/ha, Postemergence, visual injury after approximately 10 d, 0 to 100 scale where 0 is no effect and 100 is complete control; for pest or weed control at 500 g/ha: 500 g ai/ha, postemergence, visual injury, 0 to 100 scale (0 no effect, 100 complete control), approx. 10 d
Procedure, shortened: as §2

[9] = test system: blackgrass (Alopecurus myosuroides); experiment: Test A postemergence; conditions: Alopecurus myosuroides, post-emergence, 240 h, read-out: Plant response rating, Blackgrass; for pest or weed control at 125 g/ha: 125 g ai/ha, Postemergence, visual injury after approximately 10 d, 0 to 100 scale where 0 is no effect and 100 is complete control; for pest or weed control at 500 g/ha: 500 g ai/ha, postemergence, visual injury, 0 to 100 scale (0 no effect, 100 complete control), approx. 10 d
Procedure, shortened: as §2

[10] = test system: barnyardgrass (Echinochloa crus-galli); experiment: Test A postemergence; conditions: Echinochloa crus-galli, post-emergence, 240 h, read-out: Plant response rating, Barnyardgrass; for pest or weed control at 125 g/ha: 125 g ai/ha, Postemergence, visual injury after approximately 10 d, 0 to 100 scale where 0 is no effect and 100 is complete control; for pest or weed control at 500 g/ha: 500 g ai/ha, postemergence, visual injury, 0 to 100 scale (0 no effect, 100 complete control), approx. 10 d
Procedure, shortened: as §2

Kochia (Kochia scoparia) = experiment: Test A postemergence; conditions: Bassia scoparia, post-emergence, 240 h, read-out: Plant response rating, Kochia; for pest or weed control at 125 g/ha: 125 g ai/ha, Postemergence, visual injury after approximately 10 d, 0 to 100 scale where 0 is no effect and 100 is complete control; for pest or weed control at 500 g/ha: 500 g ai/ha, postemergence, visual injury, 0 to 100 scale (0 no effect, 100 complete control), approx. 10 d
Procedure, shortened: as §2

[11] = test system: ragweed (common ragweed, Ambrosia elatior); experiment: Test A postemergence; conditions: Ambrosia artemisiifolia, post-emergence, 240 h, read-out: Plant response rating, Ragweed; for pest or weed control at 125 g/ha: 125 g ai/ha, Postemergence, visual injury after approximately 10 d, 0 to 100 scale where 0 is no effect and 100 is complete control; for pest or weed control at 500 g/ha: 500 g ai/ha, postemergence, visual injury, 0 to 100 scale (0 no effect, 100 complete control), approx. 10 d
Procedure, shortened: as §2

[12] = test system: ragweed (common ragweed, Ambrosia elatior); experiment: Test A preemergence; conditions: Ambrosia artemisiifolia, pre-emergence, 240 h; for pest or weed control at 125 g/ha: 125 g ai/ha, Preemergence, visual injury rating after approximately 10 d, read-out: Ragweed plant response rating (0 to 100 scale, 0 is no effect, 100 is complete control); for pest or weed control at 500 g/ha: 500 g ai/ha, preemergence, visual injury rating about 10 d after treatment, 0 to 100 scale (0 no effect, 100 complete control), read-out: Ragweed plant response rating
Procedure, shortened: as §2

Compound	pest or weed control at 250 g/ha (rice (Oryra sativa))	pest or weed control at 250 g/ha [1]	pest or weed control at 250 g/ha [2]	pest or weed control at 250 g/ha [3]	pest or weed control at 125 g/ha [4]	pest or weed control at 500 g/ha [4]	Corn plant response rating (crop injury, 0 = no effect, 100 = complete kill) at 125 g/ha (corn (Zea mays))	Corn plant response rating (crop injury, 0 = no effect, 100 = complete kill) at 500 g/ha (corn (Zea mays))	pest or weed control at 125 g/ha [5]	pest or weed control at 500 g/ha [5]	plant injury at 125 g/ha [6]	plant injury at 500 g/ha [6]	pest or weed control at 125 g/ha [7]	pest or weed control at 500 g/ha [7]	pest or weed control at 125 g/ha [8]	pest or weed control at 500 g/ha [8]	pest or weed control at 125 g/ha [9]	pest or weed control at 500 g/ha [9]	pest or weed control at 125 g/ha [10]	pest or weed control at 500 g/ha [10]	other results
Cc1ccc([C@H]2CN(C)C(=O)[C@@H]2C(=O)Nc2cccc(F)c2C)cc1Cl [Compound 1014]	70%	0%	85%	100%	90%	90%	70%	90%	30%	30%	30%	80%	20%	60%	30%	60%	0%	50%	90%	90%	pest or weed control at 125 g/ha (Kochia (Kochia scoparia)): 30%; pest or weed control at 500 g/ha (Kochia (Kochia scoparia)): 50%; pest or weed control at 125 g/ha [11]: 0%; pest or weed control at 500 g/ha [11]: 30%; pest or weed control at 125 g/ha [12]: 0%; pest or weed control at 500 g/ha [12]: 0%
CC(=O)Oc1ccc(F)c(NC(=O)[C@H]2C(=O)N(C)C[C@@H]2c2cc(F)cc(F)c2)c1 [Compound 1019]	0%	0%	0%	0%	0%	0%	0%	0%	0%	0%	0%	0%	0%	0%	0%	0%	0%	0%	0%	0%	pest or weed control at 125 g/ha (Kochia (Kochia scoparia)): 0%; pest or weed control at 500 g/ha (Kochia (Kochia scoparia)): 0%; pest or weed control at 125 g/ha [11]: 0%; pest or weed control at 500 g/ha [11]: 0%; pest or weed control at 125 g/ha [12]: 0%; pest or weed control at 500 g/ha [12]: 0%
O=C1NC[C@H](c2ccc3c(c2)OCO3)[C@H]1C(=O)Nc1ccc(F)cc1F [Compound 1026]	20%	0%	100%	0%	0%	20%	0%	30%	0%	0%	20%	30%	0%	50%	0%	0%	0%	0%	70%	90%	pest or weed control at 125 g/ha (Kochia (Kochia scoparia)): 0%; pest or weed control at 500 g/ha (Kochia (Kochia scoparia)): 0%; pest or weed control at 125 g/ha [11]: 0%; pest or weed control at 500 g/ha [11]: 0%; pest or weed control at 125 g/ha [12]: 50%; pest or weed control at 500 g/ha [12]: 50%
